Holding throughout (assay type): biochemical
For assay [1], the target named is T1, Nterm-phos (Homo sapiens, UniProt P34913).
T1 construct: use of a truncated enzyme from crude extract versus purified full-length human sEH; made in house; host or cells: baculovirus expression system (insect cells)
T1 sequence (P34913 1-555): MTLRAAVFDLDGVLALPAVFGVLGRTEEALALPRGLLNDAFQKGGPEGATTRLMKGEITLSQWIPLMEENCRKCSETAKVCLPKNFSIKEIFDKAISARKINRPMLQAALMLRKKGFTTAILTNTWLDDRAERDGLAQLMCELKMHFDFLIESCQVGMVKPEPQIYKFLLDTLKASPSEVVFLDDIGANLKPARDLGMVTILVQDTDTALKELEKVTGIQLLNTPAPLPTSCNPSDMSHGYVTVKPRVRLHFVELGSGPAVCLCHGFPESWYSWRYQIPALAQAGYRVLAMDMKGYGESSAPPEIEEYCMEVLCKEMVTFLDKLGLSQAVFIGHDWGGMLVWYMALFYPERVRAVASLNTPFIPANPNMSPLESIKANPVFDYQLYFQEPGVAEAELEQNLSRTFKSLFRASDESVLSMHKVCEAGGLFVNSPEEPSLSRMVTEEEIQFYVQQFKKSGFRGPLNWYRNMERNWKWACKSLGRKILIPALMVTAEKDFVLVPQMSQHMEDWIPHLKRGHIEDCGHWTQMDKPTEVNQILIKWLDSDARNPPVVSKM
As to the kind of experiment: Specific activity of Nterm-phos for lipid-phosphates (phosphoric acid formed). Particulars: substrate hydrolysis, 30° C., average ± SD of three experiments. On the procedure:
Nterm-Phos activity was measured in Bis-Tris HCl buffer (25 mM PH 7.0) containing 0.1 mg/mL of Fraction V BSA and 1 mM of MgCl2 (buffer A) at 30° C. […] APHP activity was measured as described using 7 as substrate (Newman et al., Proc. Natl. Acad. Sci. USA. 100, 1558-1563 (2003)). Compounds 34-37 were incubated separately with the enzyme for a given time, and then the reaction was stopped by the addition of 100 μL of methanol. The reaction products for compounds 34-37 were extracted with 500 μL of ethyl acetate. The quantification of the alcohol products was performed by LC/MS analysis of 2 μL of the organic phase. The Cterm-EH activity was measured as described previously in buffer A, using either racemic 4-nitrophenyl-trans-2,3-epoxy-3-phenylpropyl carbonate (Dietze et al., Anal. Biochem. 216, 176-187 (1994)) or racemic [^3H]-trans-1,3-diphenylpropene oxide as substrate (Borhan et al., Anal. Biochem. 231, 188-200 (1995)). This latter substrate was also used to measure the activity of the cress sEH and the truncated human sEH.

A further assay addresses T2, Human Cterm-EH (Homo sapiens, UniProt P34913).
T2 construct: use of a truncated enzyme from crude extract versus purified full-length human sEH; made in house; host or cells: baculovirus expression system (insect cells)
T2 sequence (P34913 1-555): T1 sequence (P34913 1-555)
As to the kind of experiment: Inhibition of Cterm-EH activity by lipid-phosphates, fluorescent assay.

Assay [2] has as its target T3, Human sEH Cterm-EH activity (Homo sapiens, UniProt P34913).
T3 construct: use of a truncated enzyme from crude extract versus purified full-length human sEH; made in house; host or cells: baculovirus expression system (insect cells)
T3 sequence (P34913 1-555): T1 sequence (P34913 1-555)
As to the kind of experiment: Cterm-EH inhibition IC50 with 4-nitrophenyl-trans-2,3-epoxy-3-phenylpropyl carbonate.

For assay [3], the target named is T1, Nterm-phos. As to the kind of experiment: Kinetic parameters of Nterm-phos for poly-isoprenyl phosphates (LC/MS of alcohol products). The method, then: Nterm-Phos activity was measured in Bis-Tris HCl buffer (25 mM PH 7.0) containing 0.1 mg/mL of Fraction V BSA and 1 mM of MgCl2 (buffer A) at 30° C. […] APHP activity was measured as described using 7 as substrate (Newman et al., Proc. Natl. Acad. Sci. […] The quantification of the alcohol products was performed by LC/MS analysis of 2 μL of the organic phase. […] This latter substrate was also used to measure the activity of the cress sEH and the truncated human sEH. […] The Shimadzu […] HPLC system (Shimadzu Scientific Instruments, Columbia, Md.) was set at a flow rate of 0.2 mL/min, and a 2.1×30 mm XTerraTM MS C18 3.5 μm column (Waters, Milford, Mass.) held at 20° C. The samples were kept at 10° C. in the auto-sampler. […] A solvent system consisting of water with 0.1% formic acid (solvent A) and acetonitrile with 0.1% formic acid (solvent B) was used and set at a flow rate of 0.25 mL/min. […] Pyrophosphate was analyzed by direct injection of 5 μL sample into the mass spectrometer at 0.05 mL/min flow rate of 50% A and 50% B. Analytes were detected by electrospray ionization-tandem quadrupole mass spectrometry in multiple reaction monitoring mode (MRM) using a Quattro Premier tandem quadrupole mass spectrometer (Micromass, Manchester, UK). Nitrogen gas flow rates were fixed with a cone gas flow of 25 L/h and a desolvation gas flow of 700 L/h. Electrospray ionization of geraniol, farnesol and geranylgeraniol was performed in positive mode with a capillary voltage fixed at 3.20 kV and a cone voltage fixed at 25 V using a source temperature of 125° C. and a desolvation temperature of 350° C. Capillary voltage and cone voltage were optimized in an infusion experiment. […] However, intense [M+H-18]^+ ions were produced in the source due to water loss. Therefore, these ions were selected as precursor ions to set MRM acquisition mode. Monitored transitions were 137>95 m/z for geraniol, 205>121 m/z for farnesol, and 273>149 m/z for geranylgeraniol at collision voltage of 15 V for all analytes. Argon was used as collision gas (2.2×10^-3 Torr). […] Chromatogram integration and analyte quantification was performed with QuantLynx module of the MassLynx 4.0 software (Micromass, Manchester, UK).

The mark [4] stands for this setting: substrate 50 μM, 5 min preincubation, 30° C., read-out: IC50.

Experimental findings from patent US20090215894A1, “INHIBITION OF PHOSPHATASE ACTIVITY OF SOLUBLE EPOXIDE HYDROLASE AMINO TERMINUS AND USES THEREOF” (REGENTS OF THE UNIVERSITY OF CALIFORNIA, priority 2005, published 2009) are described below.

Where a name gives a salt, the structure may show the parent alone. Read-outs that look alike come from different tables or passages of the source. Where only a bound is given, the exact number is not on record here.

Consider `CC(C)=CCC/C(C)=C/CC/C(C)=C/C1C(COP(=O)(O)OP(=O)(O)O)C1(C)CC/C=C(\C)CCC=C(C)C` (stereo in doubt) [Pre-squalene diphosphate (PSDP), Pre-squalene diphosphate], for which, on Nterm-phos [1], the “Spec. Act.” value amounted to 30 ± 15 nmol/min/mg. Moreover, on Human Cterm-EH ([LP] 14 μM), the “Inhibition (%)” value worked out at 86%.

Take `CC(C)=CCC/C(C)=C/CC/C(C)=C/C1C(COP(=O)(O)O)C1(C)CC/C=C(\C)CCC=C(C)C` (stereo in doubt) [Pre-squalene monophosphate (PSMP), Pre-squalene monophosphate]: on Nterm-phos [1], the “Spec. Act.” value worked out at 54 ± 22 nmol/min/mg. For the same compound, at Human Cterm-EH ([LP] 14 μM), the “Inhibition (%)” value was determined as 30%. For the compound `CCCCCCCC/C=C\CCCCCCCC(=O)OCC(COP(=O)(O)O)OC(=O)CCCCCCC/C=C\CCCCCCCC` (stereo not drawn) [1,2-Dioleoyl-glycerol-3-phosphate (DOGP), 1,2-Dioleoyl-glycerol-3-phosphate], the “Spec. Act.” value on Nterm-phos [1] is less than 0.3 nmol/min/mg. `CCCCCCCCCCCCCCCCC(C(=O)O)S(=O)(=O)O` (stereo not drawn) [Compound 10, α-Sulfostearic acid]: the half-inhibitory concentration (IC50) (commonly the point on the concentration scale where inhibition reaches its midpoint) in assay [2] (setting [4]) is more than 100 µM.

Regarding `CCCCCCCCCCCCS(=O)(=O)O` [Compound 12, Sodium dodecyl-sulfonate], the IC50 in assay [2] (setting [4]) is more than 100 µM. Turning to `O=[N+]([O-])c1ccc(OS(=O)(=O)O)cc1` [Compound 13, 4-Nitrophenyl sulfate], the IC50 in assay [2] (setting [4]) was more than 100 µM. As to `C[C@H](CCC(=O)NCCS(=O)(=O)O)[C@H]1CC[C@H]2[C@@H]3CC[C@@H]4C[C@H](OS(=O)(=O)O)CC[C@]4(C)[C@H]3CC[C@]12C` [Compound 14, Taurolithocholic acid 3-sulfate], the IC50 in assay [2] (read-out: IC50) was 90 ± 5 µM. Turning to `C[C@H](CCC(=O)NCCS(=O)(=O)O)[C@H]1CC[C@H]2[C@@H]3[C@H](O)C[C@@H]4C[C@H](O)CC[C@]4(C)[C@H]3C[C@H](O)[C@]12C` [Compound 15, Taurocholic acid], in assay [2], the IC50 was more than 100 µM. Take `C[C@]12CC[C@@H]3c4ccc(OS(=O)(=O)O)cc4CC[C@H]3[C@@H]1CCC2=O` [Compound 16, Estrone-3-sulfate]: in assay [2] (setting [4]), the IC50 was more than 100 µM.

As to `O=C[C@H](O)[C@@H](O)[C@@H](O)[C@H](O)COS(=O)(=O)O` [Compound 17, D-Galactose-6-sulfate], the IC50 in assay [2] (setting [4]) is more than 100 µM. In the case of `O=C1O[C@H]([C@@H](O)CO)C(O)=C1OS(=O)(=O)O` [Compound 18, L-Ascorbic acid 2-sulfate dipotassium salt], the IC50 in assay [2] (setting [4]) was more than 100 µM. In the case of `CC(=O)N[C@H]1C(O)O[C@H](CO)[C@H](OS(=O)(=O)O)[C@@H]1O` (stereo partly drawn) [Compound 19, N-Acetyl-D-galactosamine 4-sulfate], in assay [2] (setting [4]), the half-maximal inhibitory concentration (IC50) is more than 100 µM. On the same count and under the same terms, with `CC(C)OP(=O)(CP(=O)(OC(C)C)OC(C)C)OC(C)C` [Compound 20, Tetra-isopropyl-methylene diphosphonate] the figure was more than 100 µM. Turning to `CCOP(=O)(OCC)C(=O)c1ccccc1` [Compound 22, Diethyl-benzoylphosphonate], in assay [2], the IC50 is more than 100 µM. Same read-out and setting: with `CCOP(=O)(C/C=C/c1ccccc1)OCC` [Compound 24, Diethyl trans-cinnamyl-phosphonate] the figure was more than 100 µM; with `CCOP(=O)(Cc1ccc(C)cc1)OCC` [Compound 25, Diethyl 4-methylbenzyl-phosphonate], more than 100 µM.

As to `CCCCCCCCOP(=O)(OCCCCCCCC)c1ccccc1` [Compound 27, Dioctyl-phenyl-phosphonate], in assay [2] (setting [4]), the IC50 was found to be 92 ± 3 µM. Regarding `O=P(O)(OCc1ccccc1)OCc1ccccc1` [Compound 28, Di-benzyl-phosphate], in assay [2] (setting [4]), the IC50 was more than 100 µM. Take `CCCCCC(=O)CP(=O)(OC)OC` [Compound 29, Dimethyl (2-oxoheptyl)-phosphonate]: in assay [2], the IC50 was more than 100 µM. `CCOP(=O)(OCC)C(O)C(F)(F)F` (stereo not drawn) [Compound 30, Diethyl (2,2,2-trifluoro-1-hydroxyethyl)-phosphonate] yielded a half-maximal inhibitory concentration (IC50) in assay [2] of more than 100 µM. The same measure, in the same setting: with `CCOP(=O)(CSCC)OCC` [Compound 31, Diethyl (ethyltiomethyl)phosphonate] the figure was more than 100 µM. `CCCCCCCCCCCCP(=O)(O)O` [Compound 33, Dodecyl phosphonic acid]: the IC50 in assay [2] (setting [4]) was more than 100 µM. For `CC(C)=CCC/C(C)=C/COP(=O)(O)OP(=O)(O)O` [Compound 34, Geranyl-pyrophosphate], the Km (in general, the substrate concentration at which the rate is half of its maximum) at Nterm-phos [3] (linear curve, above the highest concentration tested) was more than 5 µM. Consider `CC(C)=CCC/C(C)=C/CC/C(C)=C/COP(=O)(O)OP(=O)(O)O` [Compound 35, Farnesyl-pyrophosphate], for which the “Spec. Act.” value at Nterm-phos [1] amounted to 32 ± 7 nmol/min/mg. Also, the “Inhibition (%)” value on Human Cterm-EH ([LP] 10 μM) is reported as 60%. Besides, on Nterm-phos [3] (compound as substrate), the Hill coefficient (usually a measure of the steepness of the concentration-response curve) was 1.0 ± 0.1, the Km was 10.1 ± 1.1 µM and the VM amounted to 12.5 ± 1.0 nmol/min/mg. For `CC(C)=CCC/C(C)=C/CC/C(C)=C/CC/C(C)=C/COP(=O)(O)OP(=O)(O)O` [Compound 36, Geranylgeranyl-pyrophosphate], the “Inhibition (%)” value on Human Cterm-EH ([LP] 10 μM) is reported as 45%. Further, at Nterm-phos [3] (compound as substrate), the Hill coefficient turned out to be 1.0 ± 0.2, the Km came out at 3.4 ± 1.6 µM and the VM worked out at 4.7 ± 1.1 nmol/min/mg.

In the case of `CC(C)=CCC/C(C)=C\CC/C(C)=C\COP(=O)(O)O` [Compound 37, Farnesyl monophosphate], the “hydrolyzed faster than the corresponding pyrophosphate derivative” value on Nterm-phos [3] is “approximately 50 fold”. Moreover, on Nterm-phos [3] (compound as substrate), the Hill coefficient was 1.0 ± 0.1, the Km turned out to be 5.7 ± 0.4 µM and the VM was found to be 303 ± 19 nmol/min/mg. As for `CCCCCCCCCCCCCC=CC(O)C(COP(=O)(O)O)NC(=O)CCCCCCC` (stereo not drawn) [N-Octyl-ceramide-1-phosphate (OCP), N-Octyl-ceramide-1-phosphate], the “Spec. Act.” value at Nterm-phos [1] was less than 0.3 nmol/min/mg. On Human Cterm-EH ([LP] 50 μM), the “Inhibition (%)” value stood at 31%.

As to `CCCCCCCCCCCCC/C=C/[C@@H](O)[C@@H](N)COP(=O)(O)O` [Sphingosine-1-phosphate (S1P), Sphingosine-1-phosphate], the “Spec. Act.” value on Nterm-phos [1] was determined as 1.1 ± 0.1 nmol/min/mg. Moreover, on Human Cterm-EH ([LP] 40 μM), the inhibition (usually the share of the control response that was lost under treatment) at 40 µM turned out to be 2%.
